Measured values reported in patent US11560370B1, “5-membered heteroaryl carboxamide compounds for treatment of HBV” (Assembly Biosciences, Inc., priority 2018, dated 2023).

Each compound was assayed on HBV (assay: Viral production from HepAD38 cells, viral load by qPCR of HBV core sequence). Conditions: 5 days, supernatant HBV DNA by qPCR, read-out: Viral Load EC50 Activity range.
Assay type: cell-based
How it was run: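 HepAD38 cells in tetracycline-free medium with 2% FBS, 50,000 cells/well, treated 5 days at 37° C. with compound from 10 μM top concentration (1% DMSO final). Supernatant HBV DNA measured by TaqMan qPCR of core sequence against standards, versus DMSO wells; viability by CellTiter-Glo; EC50/CC50 by four-parameter fit.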

Compound	EC50
Cn1nc(C2CC3CC(O)(CN4CCCCC4)CC3C2)c(C(=O)Nc2ccc(F)c(Cl)c2)c1N (single isomer, unassigned) [AIA-363-2, 5-Amino-N-(3-chloro-4-fluorophenyl)-3-(5-hydroxy-5-(piperidin-1-ylmethyl)octahydropentalen-2-yl)-1-methyl-1H-pyrazole-4-carboxamide]	100 to 500 nM
Cn1nc(C2CC3CC(N)CC3C2)c(C(=O)Nc2ccc(F)c(Cl)c2)c1N (stereo not shown) [AIA-073]	100 to 500 nM
COc1ccccc1C1CCC(c2nn(C)c(N)c2C(=O)Nc2ccc(F)c(Cl)c2)C1 (single isomer, unassigned) [AIA-275B, 5-Amino-N-(3-chloro-4-fluorophenyl)-3-(3-(2-methoxyphenyl)cyclopentyl)-1-methyl-1H-pyrazole-4-carboxamide]	100 to 500 nM
5-Amino-N-(3-chloro-4-fluorophenyl)-1-methyl-3-(3-(pyridin-4-yl)cyclopentyl)-1H-pyrazole-4-carboxamide [AIA-271]	< 100 nM
Cn1cc(C(=O)Nc2ccc(F)c(Cl)c2)c(C2CC3CC(O)(CS(C)(=O)=O)CC3C2)n1 (stereo not shown) [AIA-397]	500 to 10000 nM
Cn1nc(C2CC3CC(C(=O)O)CC3C2)c(C(=O)Nc2ccc(F)c(Cl)c2)c1N (stereo not shown) [AIA-014]	< 100 nM
CC(C)OCC1(O)CC2CC(c3nn(C)c(N)c3C(=O)Nc3ccc(F)c(Cl)c3)CC2C1 (single isomer, unassigned) [AIA-339-2, 5-Amino-N-(3-chloro-4-fluorophenyl)-3-(5-hydroxy-5-(isopropoxymethyl)octahydropentalen-2-yl)-1-methyl-1H-pyrazole-4-carboxamide]	100 to 500 nM
Cn1nc(C2CC3CC(NS(C)(=O)=O)CC3C2)c(C(=O)Nc2ccc(F)c(Cl)c2)c1N (stereo not shown) [AIA-042]	< 100 nM
Cn1nc(C2CC3CC(O)(CSCCN4CCOCC4)CC3C2)c(C(=O)Nc2ccc(F)c(Cl)c2)c1N (stereo not shown) [AIA-284]	< 100 nM

Same assay, conditions: Hepatitis B virus, HePAD38, 120 h, 5 days, supernatant HBV DNA by qPCR, read-out: Viral Load EC50 Activity range

Compound	EC50
Cn1nc(C2CC3CC(C)(O)CC3C2)c(C(=O)Nc2ccc(F)c(Cl)c2)c1N (stereo not shown) [AIA-011, 5-Amino-N-(3-chloro-4-fluorophenyl)-3-(5-hydroxy-5-methyloctahydropentalen-2-yl)-1-methyl-1H-pyrazole-4-carboxamide]	< 100 nM
COc1ccccc1C1CCC(c2nn(C)c(N)c2C(=O)Nc2ccc(F)c(Cl)c2)C1 (single isomer, unassigned) [AIA-275A, 5-Amino-N-(3-chloro-4-fluorophenyl)-3-(3-(2-methoxyphenyl)cyclopentyl)-1-methyl-1H-pyrazole-4-carboxamide]	100 to 500 nM
CC(C)S(=O)(=O)N1CC2CC(c3nn(C)c(N)c3C(=O)Nc3ccc(F)c(Cl)c3)CC2C1 (stereo not shown) [AIA-085, 5-Amino-N-(3-chloro-4-fluorophenyl)-3-(2-(isopropylsulfonyl)octahydrocyclopentyl[c]pyrrol-5-yl)-1-methyl-1H-pyrazole-4-carboxamide]	< 100 nM
COc1cc(-c2nccn2C)ccc1C1CCC(c2nn(C)c(N)c2C(=O)Nc2ccc(F)c(Cl)c2)C1 (single isomer, unassigned) [AIA-367-1, 5-Amino-N-(3-chloro-4-fluorophenyl)-3-(3-(2-methoxy-4-(1-methyl-1H-imidazol-2-yl)phenyl)cyclopentyl)-1-methyl-1H-pyrazole-4-carboxamide]	100 to 500 nM
COCCOc1ccc(C2CCC(c3nn(C)c(N)c3C(=O)Nc3ccc(F)c(Cl)c3)C2)cc1 (stereo not shown) [AIA-297, 5-Amino-N-(3-chloro-4-fluorophenyl)-3-(3-(4-(2-methoxyethoxy)phenyl)cyclopentyl)-1-methyl-1H-pyrazole-4-carboxamide]	< 100 nM
Cn1nc(C2CC3CN(C(=O)N4CCCC4)CC3C2)c(C(=O)Nc2ccc(F)c(Cl)c2)c1N (stereo not shown) [AIA-025, 5-Amino-N-(3-chloro-4-fluorophenyl)-1-methyl-3-(2-(pyrrolidine-1-carbonyl)octahydrocyclopenta[c]pyrrol-5-yl)-1H-pyrazole-4-carboxamide]	< 100 nM
CN1CC2CC(c3nn(C)c(N)c3C(=O)Nc3ccc(F)c(Cl)c3)CC2C1 (stereo not shown) [AIA-052, 5-Amino-N-(3-chloro-4-fluorophenyl)-1-methyl-3-(2-methyloctahydrocyclopenta [c]pyrrol-5-yl)-1H-pyrazole-4-carboxamide]	500 to 10000 nM
Cn1nc(C2CC3CC(O)(C(=O)NC4CC4)CC3C2)c(C(=O)Nc2ccc(F)c(Cl)c2)c1N (stereo not shown) [AIA-274-1, 5-Amino-N-(3-chloro-4-fluorophenyl)-3-(5-(cyclopropylcarbamoyl)-5-hydroxyoctahydropentalen-2-yl)-1-methyl-1H-pyrazole-4-carboxamide]	< 100 nM
Cn1nc(C2CC3C[S+]([O-])CC3C2)c(C(=O)Nc2ccc(F)c(Cl)c2)c1N (single isomer, unassigned) [AIA-056-A, 5-Amino-N-(3-chloro-4-fluorophenyl)-1-methyl-3-(2-oxidohexahydro-1H-cyclopenta[c]thiophen-5-yl)-1H-pyrazole-4-carboxamide]	500 to 10000 nM
COc1cc(-c2cscn2)ccc1C1CCC(c2nn(C)c(N)c2C(=O)Nc2ccc(F)c(Cl)c2)C1 (stereo not shown) [AIA-372, 5-Amino-N-(3-chloro-4-fluorophenyl)-3-(3-(2-methoxy-4-(thiazol-4-yl)phenyl)cyclopentyl)-1-methyl-1H-pyrazole-4-carboxamide]	< 100 nM
Cn1nc(C2CC3CC(O)(C4CC4)CC3C2)c(C(=O)Nc2ccc(F)c(Cl)c2)c1N (stereo not shown) [AIA-077, 5-Amino-N-(3-chloro-4-fluorophenyl)-3-(5-cyclopropyl-5-hydroxyoctahydropentalen-2-yl)-1-methyl-1H-pyrazole-4-carboxamide]	< 100 nM
Cn1nc(C2CC(c3ccccc3)C2)c(C(=O)Nc2ccc(F)c(Cl)c2)c1N (single isomer, unassigned) [AIA-224B, 5-Amino-N-(3-chloro-4-fluorophenyl)-1-methyl-3-(3-phenylcyclobutyl)-1H-pyrazole-4-carboxamide]	100 to 500 nM
CC(C)Oc1ccc(C2CCC(c3nn(C)c(N)c3C(=O)Nc3ccc(F)c(Cl)c3)C2)cc1 (stereo not shown) [AIA-296, 5-Amino-N-(3-chloro-4-fluorophenyl)-3-(3-(4-isopropoxyphenyl)cyclopentyl)-1-methyl-1H-pyrazole-4-carboxamide]	< 100 nM
COc1cc(-c2c[nH]cn2)ccc1C1CCC(c2nn(C)c(N)c2C(=O)Nc2ccc(F)c(Cl)c2)C1 (single isomer, unassigned) [AIA-366-2, 3-(3-(4-(1H-Imidazol-4-yl)-2-methoxyphenyl)cyclopentyl)-5-amino-N-(3-chloro-4-fluorophenyl)-1-methyl-1H-pyrazole-4-carboxamide]	< 100 nM
Cn1nc(C2CC3CC(O)(CN4CCOCC4)CC3C2)c(C(=O)Nc2ccc(F)c(Cl)c2)c1N (stereo not shown) [AIA-364-1, 5-Amin o-N-(3-chloro-4-fluorophenyl)-3-(5-hydroxy-5-(morpholinomethyl)octahydropentalen-2-yl)-1-methyl-1H-pyrazole-4-carboxamide]	500 to 10000 nM
COc1cc(-c2c[nH]cn2)ccc1C1CCC(c2nn(C)c(N)c2C(=O)Nc2ccc(F)c(Cl)c2)C1 (stereo not shown) [AIA-366-1, 3-(3-(4-(1H-Imidazol-4-yl)-2-methoxyphenyl)cyclopentyl)-5-amino-N-(3-chloro-4-fluorophenyl)-1-methyl-1H-pyrazole-4-carboxamide]	100 to 500 nM
